Source: patent US8841285B2, “Potent immunosuppressive agents, derivatives and uses” (priority 2002, dated 2014)
Read-outs that look alike come from different tables or passages of the source.

Experiments:
HeLa cells = experiment: cell proliferation assay, HeLa cells; type: cell-based
Procedure: Cell Culture and transient overexpression. HeLa, RKO, and 293T cells were cultured in DMEM (10% FBS), and Hela S3 and MCF-7 cells in RPMI1640 (10% FBS) in a water jacket cell culture incubator with 5% CO2. Transient transfection was performed using kit as described by the manufacturer. Ectopic overexpression of indicated proteins was performed using pSG5-myc-STRAP, pSG5-eIF4AI, and pcDNA-Flag-4B(wt)
Cell Proliferation Assay. 1×10^5 of indicated cells in each well of a 96-well plate were treated with indicated compounds for 24 h followed by addition of 0.11 μCi of [^3H]-thymidine (6.7 Ci/mmol) per well for 6 h, followed by harvesting to GF/C filtermats using a cell harvester. Filtermats were air-dried and scintillation counted. IC50s were determined from quadruplicate data readings and curve-fitting analysis.

[1] = tested on: cap-dependent translation; experiment: in vitro translation in RRL, bicistronic reporter, cap-dependent cistron; type: biochemical, rabbit
Procedure: In vitro Translation and Transcription. pSP/(CAG)33/FF/HCV/Ren·pA51 and pKS/FF/EMC/Ren were linearized by BamHI, then purified by phenol:chloroform extraction and ethanol precipitation, and dissolved in water. pSP/(CAG)33/FF/HCV/Ren·A51 and pKS/FF/EMC/Ren were individually transcribed using a large scale RNA production system in the presence of m7Gppp cap analog followed by incubation with DNase as described by the manufacturer. Resulting RNA was purified using a kit as described by the manufacturer. Translation was performed using a rabbit reticulocyte lysate system as per instructions. Briefly, 200 ng of purified RNA was combined in a 20 μl reaction containing 10 μl RRL, 0.2 μl each of minus Met and minus Leu amino acid mixtures, 70 mM KCl, 2 mM DTT, 1× translation buffer, and 10 units of RNasin. Compounds or DMSO were added to a final DMSO concentration of 2%. Reactions were incubated at 30° C. for 1.5 h, then 5 μl of the reaction mixture was assayed for luciferase activity as per instructions of luciferas reporter assay system.

eIF4A-eIF4G = molecular target: T1, eIF4A-eIF4G (Homo sapiens, UniProt P60842); experiment: 6XHis-eIF4AI pulldown, eIF4A-eIF4G interaction; type: binding; details: HeLa lysate; PatA at 100 μM
T1 construct: The entire ORF of human eIF4AI was ligated in-frame into the BamHI and HindIII sites of the pET-28a expression vector; made in house; host or cells: bait from E. coli BL21(DE3); eIF4G endogenous in HeLa lysate
T1 sequence (P60842 whole entry): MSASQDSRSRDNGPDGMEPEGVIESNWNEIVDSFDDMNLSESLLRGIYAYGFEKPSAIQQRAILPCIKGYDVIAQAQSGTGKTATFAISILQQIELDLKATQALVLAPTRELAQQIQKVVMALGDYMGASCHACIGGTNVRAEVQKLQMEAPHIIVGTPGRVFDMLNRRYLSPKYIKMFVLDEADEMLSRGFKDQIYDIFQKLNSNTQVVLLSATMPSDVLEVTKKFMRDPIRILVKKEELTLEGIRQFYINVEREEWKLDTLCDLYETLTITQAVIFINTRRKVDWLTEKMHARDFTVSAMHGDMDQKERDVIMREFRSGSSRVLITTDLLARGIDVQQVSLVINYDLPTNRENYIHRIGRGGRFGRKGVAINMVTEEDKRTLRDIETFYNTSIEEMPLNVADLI
Procedure: 6XHis-eIF4AI pulldown, Co-immunoprecipitation, and m^7GTP-Sepharose pulldown. For 6XHis-eIF4AI pulldowns, HeLa lysates were prepared as described above. Equal aliquots (200 μl) of lysate were incubated with PatA analogs or DMSO and 8.5 μg of 6XHis-eIF4AI overnight at 4° C., followed by addition of Ni-NTA resin for 1 h, then resin was washed with 3 ml buffer, and boiled in SDS-PAGE loading buffer followed by SDS-PAGE and immunoblotting with indicated antibodies. For co-immunoprecipitation, 293T cells with vector control or pcDNA3-Flag-4B lysates were prepared by pipetting in: 20 mM HEPES, pH 7.4, 100 mM KCl, 0.5% Triton-X-100, 20% glycerol, protease inhibitor and 15 μg/ml RNAse A followed by clearing at 13 000 g (10 min). For DMDA-PatA treated samples, lysis and wash buffers also contained 100 nM DMDA-PatA. Anti-Flag antibody was incubated overnight at 4° C., followed by addition of Protein G beads for 4 h. Beads were washed 3× with 500 μl buffer, boiled in SDS-PAGE loading buffer followed by SDS-PAGE and immunoblotting. m^7GTP-Sepharose was performed as described (Yoder-Hill et al., 1993) with modifications. 30 μl RRL was incubated with DMSO or DMDA-PatA at room temperature for 30 min, diluted with buffer supplemented with DMSO or DMDA-PatA (20 nM), then combined with 50 μl beads for 3 h at 4° C. followed by 4 washes with 1 ml buffer. […]

eIF4AI = molecular target: T2, eIF4AI (Homo sapiens, UniProt P60842); experiment: RNA-dependent ATPase activity of recombinant 6XHis-eIF4AI; type: biochemical; details: saturating poly(U) RNA
T2 construct: The entire ORF of human eIF4AI was ligated in-frame into the BamHI and HindIII sites of the pET-28a expression vector; 6XHis (N); made in house; host or cells: E. coli BL21(DE3)
T2 sequence (P60842 whole entry): as above
Procedure: Recombinant proteins. The entire ORF of human eIF4AI was ligated in-frame into the BamHI and HindIII sites of the pET-28a expression vector after PCR amplification from HeLa cells. Protein was produced in BL21(DE3) E. coli cultured in LB medium by induction with 1 mM IPTG for 6 h at 37° C. Cells were lysed by sonication and protein was purified using Ni-NTA resin as described by the manufacturer. For pET(His6-eIF4B), induction conditions were for 72 h at 16° C. Purification included a 1 ml Heparin column with a linear KCl gradient (50-500 mM).
ATPase and Helicase. ATPase activity was performed as described (Korneeva et al., 2005) with minor modifications. Reactions contained 2.5% DMSO, 6XHis-eIF4AI concentration was 0.56 μM, and reaction time was 10 min at 37° C. in buffer: 20 mM Tris-HCl, pH 7.5, 0.5 mM MgCl2, 100 mM KCl, 2 mM DTT, 0.1% (v/v) Tween 20, 10% (v/v) glycerol, 1 mg/ml BSA, and reactions were supplemented with 3-5 μCi of [γ-^32P]-ATP (6000 Ci/mmol). Saturating poly(U) concentrations were 1239 μM (nucleotides/20). Released phosphate was visualized on 15% native TBE polyacrylamide gels followed by autoradiography of wet gels (30 min exposure). Film was aligned with gels and spots were excised and ^32P levels were quantified by scintillation counting. Km and Vmax were determined by curve fitting. […]

Row | Structure (SMILES) | reversibility of antiproliferative effect (HeLa cells; HeLa cells (FIG. 13)) | sensitivity on overexpression of STRAP (HeLa cells; HeLa cells overexpressing STRAP) | increase in IC50 on overexpression of eIF4AI (HeLa cells; HeLa cells overexpressing eIF4AI vs empty vector) [fold] | inhibition of cap-dependent translation ([1]; 100 nM, HCV IRES bicistronic reporter) | IC50 ([1]; EMCV IRES bicistronic reporter, read-out: IC50, cap-dependent initiation) [nM] | IC50 ([1]; HCV IRES bicistronic reporter, read-out: IC50, cap-dependent translation) [nM] | effect on eIF4A-eIF4G interaction (eIF4A-eIF4G) | effect on Km ATP (eIF4AI) | effect on kcat (eIF4AI)
1 | CC(/C=C/C(C)=C/[C@@H]1Cc2nc(cs2)[C@@H](C)C[C@@H](N)CC(=O)O[C@@H](C)C/C(C)=C/C=C\C(=O)O1)=C\CN(C)C [Pat A (1), Pateamine A] | irreversible | did not alter sensitivity | 5 | nearly completely inhibited | ~88 | ~20 | disrupted |  | 
2 | CC(/C=C/C(C)=C/[C@@H]1Cc2nc(cs2)CCCCC(=O)O[C@@H](C)C/C(C)=C/C=C\C(=O)O1)=C\CN(C)C [compound 3, desmethyl, desamino-pateamine A] |  |  |  |  |  |  |  | significant decrease | marginally increased
